From patent EP2524688B1, “Composition for modified release comprising ranolazine” (ratiopharm GmbH, priority 2011, dated 2012)

Test: Stability under stressed conditions (assay and degradation products)
Type: physicochemical
Settings: storage over 5 weeks at 40 °C with 75 % RH and open cap
Procedure: In Table 1 assay and degradation products results for ranolazine per se, a pharmaceutical composition of the present invention, comprising ranolazine and HPMC-AS as well as a comparative pharmaceutical composition known from the prior art under stressed conditions are shown. Herein the stressed conditions are defined as storage over 5 weeks at 40 °C with 75 % RH and open cap.

COc1ccccc1OCC(O)CN1CCN(CC(=O)Nc2c(C)cccc2C)CC1 (racemic) [Ranolazine (raw material), (RS)-N-(2,6-Dimethylphenyl)-2-[4-[2-hydroxy-3-(2-methoxyphenoxy)propyl]piperazin-1-yl]acetamide]
Assay (%): 99.6% | Biggest impurity % (RRt) (RRt in brackets in the row below): 0.066%
